Test results: PMC7932537, “Quantitative profiling of protease specificity” (PLoS Computational Biology, 2021)

Tests used:
MMP-9 [1] = test: Substrate phage display with NGS: relative probability (RP) of P3-P1' tetramer clusters; type: biochemical, human; settings: for relative probability (RP): MMP9
MMP-2 [2] = biological target: T1, MMP-2 (Homo sapiens, UniProt P08253); test: K(obs) of individual phage substrates (set of 1369); type: biochemical; settings: MMP2; individual phage substrate from the set of 1369 peptides; hyphen in the sequence marks the cleavage position
T1 sequence (P08253 110-660): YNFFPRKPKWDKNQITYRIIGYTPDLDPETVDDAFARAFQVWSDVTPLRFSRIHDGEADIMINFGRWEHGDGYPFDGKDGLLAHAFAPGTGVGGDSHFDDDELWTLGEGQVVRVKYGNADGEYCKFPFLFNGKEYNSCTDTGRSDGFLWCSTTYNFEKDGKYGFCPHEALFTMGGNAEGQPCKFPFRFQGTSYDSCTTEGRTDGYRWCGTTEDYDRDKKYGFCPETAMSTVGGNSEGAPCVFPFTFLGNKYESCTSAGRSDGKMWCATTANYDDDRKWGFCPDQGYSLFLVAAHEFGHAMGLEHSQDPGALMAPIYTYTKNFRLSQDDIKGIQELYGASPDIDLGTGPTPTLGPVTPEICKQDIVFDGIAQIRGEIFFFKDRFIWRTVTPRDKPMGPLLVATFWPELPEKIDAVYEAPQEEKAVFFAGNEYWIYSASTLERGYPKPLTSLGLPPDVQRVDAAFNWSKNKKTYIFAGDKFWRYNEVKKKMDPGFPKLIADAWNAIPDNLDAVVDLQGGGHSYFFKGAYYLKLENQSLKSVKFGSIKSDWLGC

MMP-9 [3] = biological target: MMP-9 (Homo sapiens, UniProt P14780); test: as above; type: biochemical; settings: MMP9; individual phage substrate of the set of 1369 peptides; dash in sequence marks cleavage position
MMP-2 [4] = test: Substrate phage display with NGS: relative probability (RP) of P3-P1' tetramer clusters; type: biochemical, human
[5] = RP of the substrate's P3-P1' tetramer, substrate phage display with NGS
[6] = RP according to MMP2, P3-P1' tetramer of unique physiologic MMP2 substrates from MEROPS

Chain of MMP-9 (Homo sapiens, UniProt P14780) (P14780 94-707): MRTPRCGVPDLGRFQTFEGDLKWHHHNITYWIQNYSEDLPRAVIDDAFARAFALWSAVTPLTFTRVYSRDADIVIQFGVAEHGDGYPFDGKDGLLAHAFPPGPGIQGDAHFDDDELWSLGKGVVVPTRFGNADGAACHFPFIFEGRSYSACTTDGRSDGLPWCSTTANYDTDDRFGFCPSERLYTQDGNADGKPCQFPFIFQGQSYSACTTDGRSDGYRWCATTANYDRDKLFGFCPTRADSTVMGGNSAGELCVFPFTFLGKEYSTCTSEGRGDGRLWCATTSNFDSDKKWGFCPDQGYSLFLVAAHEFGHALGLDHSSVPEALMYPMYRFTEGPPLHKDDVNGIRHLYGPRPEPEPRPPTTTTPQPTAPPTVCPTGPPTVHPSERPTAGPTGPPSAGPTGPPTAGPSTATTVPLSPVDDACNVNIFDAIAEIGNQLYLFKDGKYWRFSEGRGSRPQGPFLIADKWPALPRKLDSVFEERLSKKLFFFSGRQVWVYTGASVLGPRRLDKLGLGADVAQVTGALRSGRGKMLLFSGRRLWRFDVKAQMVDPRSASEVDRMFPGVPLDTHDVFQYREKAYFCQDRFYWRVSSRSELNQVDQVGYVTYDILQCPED

Row | Substance | relative probability (RP) (MMP-9 [1]; [5]) | Kobs (MMP-2 [2]) [M⁻¹ s⁻¹] | Kobs (MMP-9 [3]) [M⁻¹ s⁻¹] | also measured
1 | KSISN-WTASG | 0.06259 | 10866.7 | 84.609 | –
2 | MWVLS-LTASG | 27.5596 | 12792.1 | 8941.32 | –
3 | MGPWF-MTASG | 35.6409 | 0 | 9740.44 | –
4 | IGVRA-LTASG | 43.1929 | 12792.1 | 12792.1 | –
5 | GSPRN-LRTAS | 48.2698 | 12792.1 | 12792.1 | –
6 | SGPRG-VTVTA | 42.1832 | 12792.1 | 12792.1 | –
7 | SGVWN-LMSTA | 38.922 | 3438.54 | 12792.1 | –
8 | ILLSP-LTASG | 4.611 | 12792.1 | 1030.73 | –
9 | FIPMW-STASG | 27.7553 | 451.441 | 6131.32 | –
10 | QVPRR-LTASG | 2.666 | 12792.1 | 10866.7 | –
11 | VDVSF-LTASG | 1.252 | 8941.32 | 912.511 | –
12 | HMPLG-LTASG | 48.9856 | 12792.1 | 12792.1 | –
13 | SGPAS-FSVTA | 30.2578 | 12792.1 | 2344.36 | –
14 | EGPMR-LTASG | 42.6597 | 12792.1 | 12792.1 | –
15 | SGPRN-YHGTA | 46.9938 | 12792.1 | 12792.1 | –
16 | YIPLV-YTASG | 9.417 | 0 | 1239.69 | –
17 | SSPLN-YTASG | 47.778 | 12792.1 | 12792.1 | –
18 | MPMGR-LTASG | 2.466 | 4082.43 | 113.394 | –
19 | WNPSY-LTASG | 40.8983 | 12792.1 | 8941.32 | –
20 | SGVRA-IRQTA | 39.7636 | 3253.29 | 12792.1 | –
21 | TDIGE-ITASG | 0.4519 | 6131.32 | 0 | –
22 | GTPIE-LYTAS | 35.3641 | 8321.48 | 9740.44 | –

Row | Substance | relative probability (RP) (MMP-9 [1]; [5]) | Kobs (MMP-2 [2]) [M⁻¹ s⁻¹] | Kobs (MMP-9 [3]) [M⁻¹ s⁻¹] | also measured
23 | TSPGL-LTASG | 19.6268 | 12792.1 | 690.17 | –
24 | GMLRA-MHTAS | 36.706 | 6396.07 | 3253.29 | –
25 | SGPRS-WTNTA | 40.7744 | 5889.62 | 5090.5 | –
26 | ESIRH-LTASG | 35.7683 | 12792.1 | 5667.28 | –
27 | HTVRN-VTASG | 19.0254 | 5269.78 | 3079.62 | –
28 | RMWRA-FTASG | 17.7749 | 4205.91 | 4922.1 | –
29 | GQPRA-IRTAS | 47.8426 | 12792.1 | 12792.1 | –
30 | YGPSL-LTASG | 32.4935 | 12792.1 | 12792.1 | –
31 | GMPGR-LSTAS | 29.3451 | 7015.91 | 517.582 | –
32 | SGPGA-MMFTA | 36.3159 | 12792.1 | 5090.5 | –
33 | GGPST-LTASG | 36.3405 | 9740.44 | 4613.14 | –
34 | PTWRG-LTASG | 37.3667 | 5269.78 | 12792.1 | –
35 | YSTLR-TASGA | 0 | 12792.1 | 1239.69 | –
36 | KIPSA-LTASG | 47.6113 | 12792.1 | 9740.44 | –
37 | QRVAA-VTASG | 0.4709 | 4082.43 | 0 | –
38 | MFVRK-LTASG | 0 | 10866.7 | 4763.33 | –
39 | SGPHY-LMMTA | 37.3972 | 6396.07 | 6688.74 | –
40 | SGPRN-LAVTA | 48.2698 | 12792.1 | 12792.1 | –
41 | SGVRG-LFTTA | 42.3063 | 6131.32 | 12792.1 | –
42 | GVVGA-LRTAS | 19.0529 | 10866.7 | 874.197 | –
43 | SGVKW-LMSTA | 39.0108 | 4335.13 | 12792.1 | –
44 | GFVFE-LRTAS | 20.3412 | 5889.62 | 9740.44 | –

Row | Substance | relative probability (RP) (MMP-9 [1]; [5]) | Kobs (MMP-2 [2]) [M⁻¹ s⁻¹] | Kobs (MMP-9 [3]) [M⁻¹ s⁻¹] | also measured
45 | LQIGH-LTASG | 14.7862 | 12792.1 | 1870.4 | –
46 | MSLAT-LTASG | 0.7406 | 12792.1 | 0 | –
47 | IAPAK-LTASG | 39.5582 | 12792.1 | 12792.1 | –
48 | KGPSG-LTASG | 47.388 | 12792.1 | 10866.7 | –
49 | PTLQY-LTASG | 2.48 | 12792.1 | 585.336 | –
50 | VEAVA-ITASG | 21.5568 | 5090.5 | 4922.1 | –
51 | TSARK-LTASG | 0 | 323.705 | 1112.44 | –
52 | SGISW-MRHTA | 21.4 | 7815.03 | 2476.66 | –
53 | SGPLK-ITRTA | 38.9391 | 0 | 2837.92 | –
54 | LIPAW-LTASG | 46.2228 | 12792.1 | 10866.7 | –
55 | AHPSA-LTASG | 47.6113 | 12792.1 | 12792.1 | –
56 | KSPRP-YTASG | 47.6856 | 12792.1 | 12792.1 | –
57 | IMHRA-LTASG | 18.7073 | 12792.1 | 9740.44 | –
58 | SGVLS-LQSTA | 27.5596 | 2916.17 | 7015.91 | –
59 | SGPRD-ILATA | 41.2501 | 12792.1 | 12792.1 | –
60 | WYPSK-LTASG | 38.9571 | 12792.1 | 10866.7 | –
61 | SGPSG-WTATA | 29.7011 | 7815.03 | 6131.32 | –
62 | SGPRA-VSATA | 40.8515 | 12792.1 | 12792.1 | –
63 | PDAL | – | – | – | relative probability (RP) (acc.to MMP2) (MMP-2 [4]; RP of matching tetramer, common MMP2-9 selectome): 7.73; relative probability (RP) (MMP-9 [1]; RP of the P3-P1' tetramer matching the MS detected cleavage, RP above 4.7, substrate phage display with NGS): 29.54; relative probability (RP) (acc.to MMP9) (MMP-9 [1]; RP of matching tetramer, common MMP2-9 selectome, RP above KL threshold): 29.54
64 | EPKPLL | – | – | – | relative probability (RP) (MMP-2 [4]; RP of the P3-P1' tetramer cluster contained in the hexamer, 200 nM MMP-2, 2 h, 37°C, two rounds of selection): 33.5622; relative probability (RP) (MMP-9 [1]; RP of the P3-P1' tetramer contained in the hexamer substrate (substrate phage display, NGS)): 48.2599
65 | PEAQ | – | – | – | corresponding MMP2 relative probability (RP) (MMP-2 [4]; MMP9 tetramers from unique substrates, RP of same tetramer for MMP2): 6.464; MMP9 relative probability (RP) (MMP-9 [1]; MMP9 tetramers from unique substrates, unrounded values): 2.403
66 | KSEL | – | – | – | MMP2 relative probability (RP) (MMP-2 [4]; MMP2 tetramers from unique substrates, unrounded values): 10.4091; Relative probability (RP) rank (MMP-2 [4]; [6]): 4754; relative probability (RP) (MMP-2 [4]; [6]): 10.41; corresponding MMP9 relative probability (RP) (MMP-9 [1]; MMP2 tetramers from unique substrates, RP of same tetramer for MMP9): 0.2037
